The test system of data set [1] is Mycobacterium tuberculosis. As to the kind of experiment: Inhibition of N-terminal enterokinase-cleavable His-tagged full-length Mycobacterium tuberculosis Zmp1 expressed in Escherichia coli BL21(DE3) assessed as residual enzyme activity at 50 uM using MCA-Pro-Leu-Gly-Leu-Dpa-Ala-Arg-NH2 substrate by fluorometry.
Data set [2] relates to Mycobacterium tuberculosis. As to the kind of experiment: Antimycobacterial activity against Mycobacterium tuberculosis infected in human THP1 cells assessed as inhibition of microbial growth by measuring colony forming units at 100 ug/ml incubated for 72 hrs followed by plating on Middlebrook 7H11 medium for 21 days. It is filed as functional. To be noted: THP-1, read-out: GI.

The test system of data set [3] is Mycobacterium tuberculosis. The data set can be described thus: Antimycobacterial activity against Mycobacterium tuberculosis infected in human THP1 cells assessed as inhibition of microbial growth by measuring colony forming units at 10 ug/ml incubated for 72 hrs followed by plating on Middlebrook 7H11 medium for 21 days. The following applies: THP-1, read-out: GI. It is filed as functional.

A short description of data set [4]: Cytotoxicity against human THP1 cells assessed as reduction in cell viability incubated for 72 hrs by MTT assay. It is filed as cell-based. The following applies: THP-1 cells. In general terms: Tetrazolium assays rely on reduction of a dye to a coloured formazan, in cell work by metabolically active cells.
The nature of data set [5]: Cytotoxicity against African green monkey Vero cells assessed as reduction in cell viability incubated for 72 hrs by MTT assay. It is filed as cell-based. To be noted: chlorocebus sabaeus.
Data set [6] deals with Mycobacterium tuberculosis. The data set can be described thus: Antimycobacterial activity against Mycobacterium tuberculosis H37Ra ATCC […] assessed as reduction in bacterial growth incubated for 7 days by resazurin microtiter assay. It is filed as functional. The following applies: 168 h. A general note: The colour change of resazurin is a common sign of viable cells or microbes.

Data set [7] in a line: Inhibition of N-terminal enterokinase-cleavable His-tagged full-length Mycobacterium tuberculosis Zmp1 expressed in Escherichia coli BL21(DE3) assessed as reduction in enzyme activity at 50 uM using MCA-Pro-Leu-Gly-Leu-Dpa-Ala-Arg-NH2 substrate by fluorometry.

The structures appear in SMILES notation. Converted amounts (≈) assume the structure as drawn.

Regarding `COC(=O)c1cccc(Cc2csc(N[C@H](Cc3ccccc3)C(=O)O)n2)c1`, the Activity in data set [1] is 100%.

As to `O=C(O)c1ccc(/C=C2\SC(=S)N([C@H](Cc3ccccc3)C(=O)O)C2=O)cc1`, the inhibition of growth at 100 µg/mL in data set [2] turned out to be 60%. The inhibition of growth at 10 µg/mL in data set [3] came to 0.1%. Also, the CC50 at 72 h in data set [4] and in data set [5] was greater than 125 µg/mL throughout. The MIC (in general, the lowest concentration found to suppress growth) in data set [6] was greater than 64 µg/mL. In data set [7], the IC50 (commonly the concentration that inhibits the measured activity by half) came out at 0.87 µM.

On to `COc1cccc(/C=C2\SC(=S)N(CC(=O)O)C2=O)c1`, for which the Activity in data set [1] is 18.9%. In data set [7], the IC50 was found to be 28.2 µM.

As to `O=C(O)c1ccc(-c2csc(N[C@H](Cc3ccccc3)C(=O)O)n2)cc1`, the Activity in data set [1] is 100%.

Consider `O=C(O)c1ccc(Cc2csc(N[C@H](Cc3ccccc3)C(=O)O)n2)cc1`, for which, in data set [1], the Activity amounted to 100%.

As to `COc1cccc(-c2csc(N[C@H](Cc3ccccc3)C(=O)O)n2)c1`, the Activity in data set [1] amounted to 91.9%.

As to `N#Cc1ccc(/C=C2\SC(=S)N([C@H](Cc3ccccc3)C(=O)O)C2=O)cc1`, in data set [1], the Activity worked out at 7.1%. Further, the IC50 in data set [7] stood at 6.6 µM.

As to `COc1cccc(/C=C2\SC(=S)N([C@H](Cc3ccccc3)C(=O)O)C2=O)c1`, the Activity in data set [1] came out at 10%. The IC50 in data set [7] came out at 18.4 µM.

Regarding `N#Cc1ccc(-c2csc(N[C@H](Cc3ccccc3)C(=O)O)n2)cc1`, in data set [1], the Activity was found to be 35%. Also, in data set [7], the IC50 was 41.3 µM.

On to `O=C(O)[C@@H](Cc1ccccc1)Nc1nc(Cc2ccccc2)cs1`, for which the Activity in data set [1] was found to be 100%.

Take `COc1cccc(Cc2csc(N[C@H](Cc3ccccc3)C(=O)O)n2)c1`: the Activity in data set [1] is 100%.

Take `COc1ccc(-c2csc(N[C@H](Cc3ccccc3)C(=O)O)n2)cc1`: the Activity in data set [1] is 100%.

For the compound `COC(=O)c1ccc(Cc2csc(N[C@H](Cc3ccccc3)C(=O)O)n2)cc1`, the Activity in data set [1] stood at 61%.

As to `O=C(O)[C@@H](Cc1ccccc1)N1C(=O)/C(=C/c2cccs2)SC1=S`, the Activity in data set [1] came out at 10.4%. The IC50 in data set [7] worked out at 11.4 µM.

Turning to `O=C(O)c1ccc(/C=C2\SC(=S)N([C@@H](Cc3ccccc3)C(=O)O)C2=O)cc1`, in data set [2], the inhibition of growth at 100 µg/mL came out at 58.3%. In addition, in data set [3], the inhibition of growth at 10 µg/mL stood at 57.4%. Also, the CC50 (commonly the concentration at which the toxic effect on the cells reaches its halfway point) at 72 h is 115 µg/mL (≈ 278 µM) in data set [4] and greater than 125 µg/mL in data set [5]. The MIC in data set [6] is greater than 64 µg/mL.

For the compound `O=C(O)c1cccc(/C=C2\SC(=S)N([C@H](Cc3ccccc3)C(=O)O)C2=O)c1`, the inhibition of growth at 100 µg/mL in data set [2] came out at 54.5%. Moreover, the inhibition of growth at 10 µg/mL in data set [3] worked out at 23.4%. For the same compound, the Activity in data set [1] turned out to be 13.4%. Besides, the CC50 at 72 h in data set [4] was 102 µg/mL (≈ 246 µM); in data set [5] it was greater than 125 µg/mL. Also, the MIC in data set [6] was greater than 64 µg/mL. The concentration for half-maximal inhibition (IC50) in data set [7] amounted to 9.3 µM.

As for `O=C(O)CN1C(=O)/C(=C/c2cccc(C(=O)O)c2)SC1=S`, the Activity in data set [1] was found to be 11.2%. For the same compound, the IC50 in data set [7] was 15.7 µM.

For `COC(=O)c1cccc(/C=C2\SC(=S)N([C@H](Cc3ccccc3)C(=O)O)C2=O)c1`, the inhibition of growth at 10 µg/mL in data set [3] was found to be 0.5%. In data set [1], the Activity came out at 13.2%. Moreover, the CC50 at 72 h in data set [4] was determined as 21.9 µg/mL (≈ 51.2 µM); in data set [5] it was 32.5 µg/mL (≈ 76 µM). For the same compound, the MIC in data set [6] turned out to be 64 µg/mL (≈ 150 µM). Besides, the IC50 in data set [7] came to 12.5 µM.

On to `O=C(O)[C@@H](Cc1ccccc1)Nc1nc(-c2ccc([N+](=O)[O-])cc2)cs1`, for which the Activity in data set [1] was determined as 36.3%. Moreover, the IC50 in data set [7] was found to be 35.7 µM.

Consider `O=C(OCCc1ccccc1)c1ccc(/C=C2\SC(=S)N([C@H](Cc3ccccc3)C(=O)O)C2=O)cc1`, for which, in data set [1], the Activity worked out at 58.7%.

Take `COc1cccc(/C=C2\SC(=S)N([C@H](C)C(=O)O)C2=O)c1`: the Activity in data set [1] was 12.6%. For the same compound, the IC50 in data set [7] was found to be 23.4 µM.

As to `C[C@H](C(=O)O)N1C(=O)/C(=C/c2cccc(C(=O)O)c2)SC1=S`, the Activity in data set [1] turned out to be 12.7%. The IC50 in data set [7] was found to be 1.3 µM.

On to `O=C(OCc1ccccc1)c1cccc(/C=C2\SC(=S)N([C@H](Cc3ccccc3)C(=O)O)C2=O)c1`, for which the inhibition of growth at 10 µg/mL in data set [3] is 53.8%. Besides, the Activity in data set [1] is 13.5%. In addition, the figures for the CC50 at 72 h in data set [4] and in data set [5] were 11.2 µg/mL (≈ 22.2 µM) and 23.2 µg/mL (≈ 46.1 µM), respectively. Moreover, the MIC in data set [6] amounted to 64 µg/mL (≈ 127 µM). In addition, the IC50 in data set [7] was determined as 24 µM.

In the case of `C[C@H](C(=O)O)N1C(=O)/C(=C/c2ccc(C(=O)O)cc2)SC1=S`, the Activity in data set [1] is 7.2%. In addition, in data set [7], the half-inhibitory concentration (IC50) was 2.9 µM.

Consider `CC(C)COC(=O)c1ccc(/C=C2\SC(=S)N([C@H](Cc3ccccc3)C(=O)O)C2=O)cc1`, for which the Activity in data set [1] was determined as 28.1%. For the same compound, in data set [7], the IC50 was determined as 43.9 µM.

Take `O=C(O)CN1C(=O)/C(=C/c2ccc(C(=O)O)cc2)SC1=S`: the Activity in data set [1] was 10.3%. Also, in data set [7], the IC50 worked out at 3.9 µM.

Regarding `COc1ccc(/C=C2\SC(=S)N([C@H](Cc3ccccc3)C(=O)O)C2=O)cc1`, in data set [1], the Activity came to 12.3%. The IC50 in data set [7] was determined as 20.4 µM.

Regarding `O=C(O)c1cccc(Cc2csc(N[C@H](Cc3ccccc3)C(=O)O)n2)c1`, the Activity in data set [1] is 100%.

For the compound `O=C(O)[C@@H](Cc1ccccc1)N1C(=O)/C(=C/c2ccncc2)SC1=S`, the Activity in data set [1] turned out to be 19.1%. Besides, the IC50 in data set [7] was 26.9 µM.

For `O=C(O)c1cccc(-c2csc(N[C@H](Cc3ccccc3)C(=O)O)n2)c1`, the Activity in data set [1] was 100%.

Values taken from ChEMBL document CHEMBL4184235, “Design, synthesis, SAR and biological investigation of 3-(carboxymethyl)rhodanine and aminothiazole inhibitors of Mycobacterium tuberculosis Zmp1” (Bioorg Med Chem Lett, 2018).
